Experimental data taken from patent US8729082B2, “Substituted imidazoquinoxalines” (Bayer Intellectual Property GmbH, priority 2009, dated 2014).

target: T1, human kinase Mps-1 (Homo sapiens, UniProt P33981); experiment: Mps-1 kinase assay (HTRF); type: biochemical; conditions: lowATP; mean; read-out: Mps1 lowATP mean IC50
T1 construct: N-terminally GST-tagged human full length recombinant Mps-1 kinase; purchased Invitrogen, Karslruhe, Germany PV4071
T1 sequence (P33981 1-857): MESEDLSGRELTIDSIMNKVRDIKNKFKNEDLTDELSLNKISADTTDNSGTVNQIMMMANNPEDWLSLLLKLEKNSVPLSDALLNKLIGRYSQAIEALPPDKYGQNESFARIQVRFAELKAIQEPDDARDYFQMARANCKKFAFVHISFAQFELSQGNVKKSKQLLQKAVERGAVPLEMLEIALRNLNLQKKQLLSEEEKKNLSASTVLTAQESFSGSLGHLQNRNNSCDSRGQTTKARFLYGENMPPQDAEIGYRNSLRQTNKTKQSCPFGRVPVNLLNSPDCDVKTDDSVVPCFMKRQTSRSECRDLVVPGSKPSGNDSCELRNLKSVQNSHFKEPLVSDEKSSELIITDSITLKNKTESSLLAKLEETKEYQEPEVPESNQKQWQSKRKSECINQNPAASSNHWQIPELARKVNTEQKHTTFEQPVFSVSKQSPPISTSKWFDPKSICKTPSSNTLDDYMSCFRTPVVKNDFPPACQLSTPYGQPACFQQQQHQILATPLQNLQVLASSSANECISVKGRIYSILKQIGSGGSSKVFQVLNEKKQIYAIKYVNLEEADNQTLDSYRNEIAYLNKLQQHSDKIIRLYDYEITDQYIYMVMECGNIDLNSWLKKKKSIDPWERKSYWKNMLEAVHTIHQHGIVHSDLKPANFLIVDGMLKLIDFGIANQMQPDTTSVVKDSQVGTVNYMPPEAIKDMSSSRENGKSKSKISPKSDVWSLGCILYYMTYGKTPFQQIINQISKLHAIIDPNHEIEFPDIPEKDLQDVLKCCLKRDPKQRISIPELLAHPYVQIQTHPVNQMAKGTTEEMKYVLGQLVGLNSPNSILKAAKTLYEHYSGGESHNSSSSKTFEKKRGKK
Protocol: The human kinase Mps-1 phosphorylates a biotinylated substrate peptide. Detection of the phosphorylated product is achieved by homogenous time-resolved fluorescence resonance energy transfer (HTRF) from Europium-labelled anti-phospho-Serine/Threonine antibody as donor to streptavidin labelled with cross-linked allophycocyanin (SA-XLent) as acceptor. Compounds are tested for their inhibition of the kinase activity.
N-terminally GST-tagged human full length recombinant Mps-1 kinase (purchased from Invitrogen, Karslruhe, Germany, cat. no PV4071) was used. As substrate for the kinase reaction a biotinylated peptide of the amino-acid sequence PWDPDDADITEILG (C-terminus in amide form, purchased from Biosynthan GmbH, Berlin) was used.
For the assay 50 nl of a 100-fold concentrated solution of the test compound in DMSO was pipetted into a black low volume 384 well microtiter plate (Greiner Bio-One, Frickenhausen, Germany), 2 μl of a solution of Mps-1 in assay buffer [0.1 mM sodium-ortho-vanadate, 10 mM MgCl2, 2 mM DTT, 25 mM Hepes pH 7.7, 0.05% BSA, 0.001% Pluronic F-127] were added and the mixture was incubated for 15 min at 22° C. to allow pre-binding of the test compounds to Mps-1 before the start of the kinase reaction. Then the kinase reaction was started by the addition of 3 μl of a solution of 16.7 μM ATP and 1.67 μM peptide in assay buffer and the resulting mixture was incubated for a reaction time of 60 min at 22° C. The concentration of Mps-1 in the assay was adjusted to the activity of the enzyme lot and was chosen appropriate to have the assay in the linear range, typical enzyme concentrations were in the range of about 1 nM (final conc. in the 5 μl assay volume). The reaction was stopped by the addition of 3 μl of a solution of HTRF detection reagents (100 mM Hepes pH 7.4, 0.1% BSA, 40 mM EDTA, 140 nM Streptavidin-XLent [#61GSTXLB, Fa. Cis Biointernational, Marcoule, France], 1.5 nM anti-phospho(Ser/Thr)-Europium-antibody [#AD0180, PerkinElmer LAS, Rodgau-Jügesheim, Germany].
The resulting mixture was incubated 1 h at 22° C. to allow the binding of the phosphorylated peptide to the anti-phospho(Ser/Thr)-Europium-antibody. Subsequently the amount of phosphorylated substrate was evaluated by measurement of the resonance energy transfer from the Europium-labelled anti-phospho(Ser/Thr) antibody to the Streptavidin-XLent. Therefore, the fluorescence emissions at 620 nm and 665 nm after excitation at 350 nm was measured in a HTRF reader, e.g. a Rubystar (BMG Labtechnologies, Offenburg, Germany) or a Viewlux (PerkinElmer LAS, Rodgau-Jügesheim, Germany). The ratio of the emissions at 665 nm and at […] was taken as the measure for the amount of phosphorylated substrate. The data were normalised (enzyme reaction without inhibitor=0% inhibition, all other assay components but no enzyme=100% inhibition).

| Structure (SMILES) | IC50 [µM] |
| --- | --- |
| O=C(NC1CC1)c1ccc(-c2cnc3c(NC[C@@H](O)CO)nc4ccc(F)cc4n23)cc1Cl (stereo in doubt) [Example 2-87, 2-chloro-N-cyclopropyl-4-{4-[(2,3-dihydroxypropyl)amino]-8-fluoroimidazo[1,2-a]quinoxalin-1-yl}benzamide] | 12.2 |
| Cc1cc2nc(NC[C@@H](O)CO)c3ncc(-c4ccc(C(=O)NC5CC5)cc4)n3c2cc1C (stereo in doubt) [Example 2-158, N-cyclopropyl-4-{4-[(2,3-dihydroxypropyl)amino]-7,8-dimethylimidazo[1,2-a]quinoxalin-1-yl}benzamide] | 0.0124 |
| CC(C)CNc1nc2ccccc2n2c(-c3ccc(NC(=O)Nc4ccc(CN5CCN(C)CC5)c(C(F)(F)F)c4)cc3)cnc12 [Example 1-1, 1-[4-(4-isobutylamino-imidazo[1,2-a]quinoxalin-1-yl)-phenyl]-3-[4-(4-methyl-piperazin-1-ylmethyl)-3-trifluoromethyl-phenyl]-urea] | 0.0559 |
| CC(C)CNc1nc2ccccc2n2c(-c3ccc(C(=O)NC4CC4)cc3)cnc12 [Example 1-2, N-cyclopropyl-4-(4-isobutylamino-imidazo[1,2-a]quinoxalin-1-yl)-benzamide] | 0.0124 |
| CC(C)CNc1nc2ccccc2n2c(-c3ccc4c(c3)OCCO4)cnc12 [Example 1-4, 1-(2,3-dihydro-1,4-benzodioxin-6-yl)-N-(2-methylpropyl)imidazo[1,2-a]quinoxalin-4-amine] | 2.86 |
| CC(C)CNc1nc2ccccc2n2c(-c3ccccc3)cnc12 [Example 1-6, N-(2-methylpropyl)-1-phenylimidazo[1,2-a]quinoxalin-4-amine] | 8.18 |
| COc1cccc(-c2cnc3c(NCC(C)C)nc4ccccc4n23)c1F [Example 1-8, 1-(2-fluoro-3-methoxyphenyl)-N-(2-methylpropyl)imidazo[1,2-a]quinoxalin-4-amine] | 17.3 |
| CC(C)CNc1nc2ccccc2n2c(-c3ccc(C(=O)N(C)C)cc3)cnc12 [Example 1-9, N,N-dimethyl-4-{4-[(2-methylpropyl)amino]imidazo[1,2-a]quinoxalin-1-yl}benzamide] | 15.2 |
| COc1ncc(-c2cnc3c(NCC(C)C)nc4ccccc4n23)cn1 [Example 1-12, 1-(2-methoxypyrimidin-5-yl)-N-(2-methylpropyl)imidazo[1,2-a]quinoxalin-4-amine] | 5.54 |
| CC(C)CNc1nc2ccccc2n2c(-c3ccc(C(N)=O)cc3)cnc12 [Example 1-15, 4-{4-[(2-methylpropyl)amino]imidazo[1,2-a]quinoxalin-1-yl}benzamide] | 0.399 |
| CC(C)CNc1nc2ccccc2n2c(-c3ccc(C(=O)N4CCCC4)cc3)cnc12 [Example 1-16, (4-{4-[(2-methylpropyl)amino]imidazo[1,2-a]quinoxalin-1-yl}phenyl)(pyrrolidin-1-yl)methanone] | 3.67 |
| CNC(=O)c1ccc(-c2cnc3c(NCC(C)C)nc4ccccc4n23)cc1 [Example 1-17, N-methyl-4-{4-[(2-methylpropyl)amino]imidazo[1,2-a]quinoxalin-1-yl}benzamide] | 0.192 |
| CNC(=O)c1cccc(-c2cnc3c(NCC(C)C)nc4ccccc4n23)c1 [Example 1-20, N-methyl-3-{4-[(2-methylpropyl)amino]imidazo[1,2-a]quinoxalin-1-yl}benzamide] | 17.4 |
| CC(C)CNc1nc2ccccc2n2c(-c3ccsc3)cnc12 [Example 1-22, N-(2-methylpropyl)-1-(thiophen-3-yl)imidazo[1,2-a]quinoxalin-4-amine] | 5.14 |
| CC(C)CNc1nc2ccccc2n2c(-c3ccc(CO)cc3)cnc12 [Example 1-27, (4-{4-[(2-methylpropyl)amino]imidazo[1,2-a]quinoxalin-1-yl}phenyl)methanol] | 1.68 |

More lines, now with the values ahead:

| IC50 [µM] | Structure (SMILES) |
| --- | --- |
| 20 | CCNC(=O)Nc1ccc(-c2cnc3c(NCC(C)C)nc4ccccc4n23)cc1 [Example 1-3, 1-ethyl-3-[4-(4-isobutylamino-imidazo[1,2-a]quinoxalin-1-yl)-phenyl]-urea] |
| 11.9 | CC(C)CNc1nc2ccccc2n2c(-c3ccc(C(=O)O)cc3)cnc12 [Example 1-5, 4-{4-[(2-methylpropyl)amino]imidazo[1,2-a]quinoxalin-1-yl}benzoic acid] |
| 5.36 | Cc1ccc(-c2cnc3c(NCC(C)C)nc4ccccc4n23)cc1 [Example 1-7, 1-(4-methylphenyl)-N-(2-methylpropyl)imidazo[1,2-a]quinoxalin-4-amine] |
| 3.34 | CSc1ccc(-c2cnc3c(NCC(C)C)nc4ccccc4n23)cc1 [Example 1-10, N-(2-methylpropyl)-1-[4-(methylsulfanyl)phenyl]imidazo[1,2-a]quinoxalin-4-amine] |
| 13.9 | Cc1ccccc1-c1cnc2c(NCC(C)C)nc3ccccc3n12 [Example 1-11, 1-(2-methylphenyl)-N-(2-methylpropyl)imidazo[1,2-a]quinoxalin-4-amine] |
| 2.01 | CC(C)CNc1nc2ccccc2n2c(-c3ccc4cc[nH]c4c3)cnc12 [Example 1-13, 1-(1H-indol-6-yl)-N-(2-methylpropyl)imidazo[1,2-a]quinoxalin-4-amine] |
| 9.73 | CC(C)CNc1nc2ccccc2n2c(-c3cccnc3F)cnc12 [Example 1-14, 1-(2-fluoropyridin-3-yl)-N-(2-methylpropyl)imidazo[1,2-a]quinoxalin-4-amine] |
| 12.1 | CC(C)CNc1nc2ccccc2n2c(-c3cnn(C)c3)cnc12 [Example 1-18, N-(2-methylpropyl)-1-(1-methyl-1H-pyrazol-4-yl)imidazo[1,2-a]quinoxalin-4-amine] |
| 11.8 | CC(C)CNc1nc2ccccc2n2c(-c3cccc4cnccc34)cnc12 [Example 1-19, 1-(isoquinolin-5-yl)-N-(2-methylpropyl)imidazo[1,2-a]quinoxalin-4-amine] |
| 3.31 | CC(C)CNc1nc2ccccc2n2c(-c3cccs3)cnc12 [Example 1-21, N-(2-methylpropyl)-1-(thiophen-2-yl)imidazo[1,2-a]quinoxalin-4-amine] |
| 7.71 | CC(C)CNc1nc2ccccc2n2c(-c3ccccc3C(F)(F)F)cnc12 [Example 1-23, N-(2-methylpropyl)-1-[2-(trifluoromethyl)phenyl]imidazo[1,2-a]quinoxalin-4-amine] |
| 2.6 | CC(=O)c1ccc(-c2cnc3c(NCC(C)C)nc4ccccc4n23)cc1 [Example 1-24, 1-(4-{4-[(2-methylpropyl)amino]imidazo[1,2-a]quinoxalin-1-yl}phenyl)ethanone] |
| 13.6 | COc1ccc(-c2cnc3c(NCC(C)C)nc4ccccc4n23)cc1OC [Example 1-25, 1-(3,4-dimethoxyphenyl)-N-(2-methylpropyl)imidazo[1,2-a]quinoxalin-4-amine] |
| 9.14 | CC(C)CNc1nc2ccccc2n2c(-c3ccccc3F)cnc12 [Example 1-26, 1-(2-fluorophenyl)-N-(2-methylpropyl)imidazo[1,2-a]quinoxalin-4-amine] |
